Experimental data reported in US20240166693A1, “METHODS AND COMPOUNDS FOR MODULATING MYOTONIC DYSTROPY 1” (Design Therapeutics, Inc., priority 2020, published 2024).

These molecules were tested on Myotonic Dystrophy 1 affected patient fibroblasts (Coriell GM04602; 1600 CTG repeats) (assay: DM1 foci reduction assay (CAG10-Cy3 FISH, average foci per nucleus)). Details: Homo sapiens, Fibroblast, 48 h, read-out: Foci Reduction in Fibroblast EC50, 48 h (nM).
Assay type: cell-based
Experimental: DM1 foci reduction assay methods: Myotonic Dystrophy 1 affected patient fibroblasts (Coriell GM04602; 1600 CTG repeats) and wild type fibroblasts (Coriell GM07492; control line) were cultured separately in Gibco DMEM (1×)+4.5 g/L D-Glucose+L-Glutamine+110 mg/L Sodium Pyruvate, supplemented with 10% FBS and 1× Pen/Strep. Cells were maintained in incubator at 37° C. and 5% CO2 with media refresh every 48-72 hours.
At 90-95% confluency, both cell lines were harvested using Trypl-E then pelleted at 500×g for 5 minutes and were resuspended in media. DM1 fibroblasts were seeded in Agilent 96 well black plates at a density of 5,000 cells/well in 200 μL media; 8 wells were reserved for control fibroblasts. Plates were returned to incubator for 24 hours at 37° C. and 5% CO2.
Compounds were diluted from 10 mM stock to 1 mM in DMSO, then diluted once more to 6 μM (2× concentration) in media. Media was removed from all plates and cells were replenished with 100 μL media. Cells were treated in 8-point dose response, 1:3 fold dilution, 3 μM top dose via addition of 100 μL of 6 μM (2× concentration) compound to the 100 μL media with cells. Plates were returned to incubator for 48-hour time-course experiment at 37° C. and 5% CO2.
Following treatment, compounds were removed, and plates were washed with PBS, then cells were fixed in 75 μL 4% PFA solution for 20 minutes at room temperature. Plates were washed twice with PBS and twice with cold 70% ethanol before permeabilization with 250 μL cold 70% ethanol for 24-72 hours at −20° C.
After permeabilization, plates were washed once with a 30% formamide and 2×SSC buffer and rehydrated in that buffer for 15 minutes at room temperature. Cells were incubated overnight at 37° C. in 75 μL of a hybridization solution containing 30% formamide, 2×SSC, 25 mg/mL dextran sulfate, 2.5 mg/mL BSA, 0.2 μg/mL Herring sperm DNA, 2 mM vanadyl-ribonucleoside complex, and 5 nM CAG10-Cy3 probe.
Plates were washed once with 30% formamide in 2×SSC buffer, then twice with the buffer for 30 minutes at 37° C., 300 RPM in an incubating plate shaker. Cells were stained with 75 μL of 2.5 μg/mL DAPI in PBS for 5 minutes at room temperature. Plates were then washed twice with PBS and stored in 250 μL PBS. Plates were sealed with adhesive foil and wiped down with 70% ethanol.
Cells were imaged on a Cytation5 with a 20× objective sampling from 4 areas of each well. Nuclei were captured under DAPI channel and foci under RFP channel. Plates were analyzed on an average foci per nucleus per well basis.

SMILES	EC50
CCN(CC)CCCC[C@H](NC(=O)[C@H](CC(C)C)NC(=O)[C@H](C)NC(=O)[C@H](Cc1ccccc1)NC(=O)c1ccc(C(C)(C)C)cc1)C(=O)N[C@@H](CO)C(=O)NCCOCCOCCNC(=O)CCNC(=O)c1nc(NC(=O)c2cc(NC(=O)CCNC(=O)c3[nH]c(NC(=O)CCCNC(=O)c4cc(NC(=O)c5nc(NC(=O)CCNC(=O)c6cc(NC(=O)c7nccn7C)cn6C)cn5C)cn4C)cc3C)cn2C)cn1C [Compound 64]	< 100 nM
CCN(CC)CCCC[C@H](NC(C)=O)C(=O)N[C@@H](CO)C(=O)NCCOCCOCCOCCOCCOCCNC(=O)CCNC(=O)c1nc(NC(=O)c2cc(NC(=O)CCCC(=O)c3nc(NC(=O)CCCNC(=O)c4cc(NC(=O)c5nc(NC(=O)CCNC(=O)c6cc(NC(=O)c7nccn7C)cn6C)cn5C)cn4C)cn3C)cn2C)cn1C [Compound 65]	> 500 nM
CCN(CC)CCCC[C@H](NC(=O)COCCOCCNC(=O)c1ccc(C(C)(C)C)cc1)C(=O)N[C@@H](CO)C(=O)NCCOCCOCCOCCOCCOCCNC(=O)CCNC(=O)c1nc(NC(=O)c2cc(NC(=O)CCNC(=O)c3nc(NC(=O)CCCNC(=O)c4cc(NC(=O)c5nc(NC(=O)CCNC(=O)c6cc(NC(=O)c7nccn7C)cn6C)cn5C)cn4C)cn3C)cn2C)cn1C [Compound 66]	100 to 500 nM
CC(=O)N[C@@H](CCCCN(C)C1CC2CCC1C2)C(=O)N[C@@H](CO)C(=O)NCCOCCOCCOCCOCCOCCNC(=O)CCNC(=O)c1nc(NC(=O)c2cc(NC(=O)CCNC(=O)c3nc(NC(=O)CCCNC(=O)c4cc(NC(=O)c5nc(NC(=O)CCNC(=O)c6cc(NC(=O)c7nccn7C)cn6C)cn5C)cn4C)cn3C)cn2C)cn1C (stereo partly shown) [Compound 67]	100 to 500 nM
CN(CCCC[C@H](NC(=O)COCCOCCNC(=O)c1ccc(C(C)(C)C)cc1)C(=O)N[C@@H](CO)C(=O)NCCOCCOCCOCCOCCOCCNC(=O)CCNC(=O)c1nc(NC(=O)c2cc(NC(=O)CCNC(=O)c3nc(NC(=O)CCCNC(=O)c4cc(NC(=O)c5nc(NC(=O)CCNC(=O)c6cc(NC(=O)c7nccn7C)cn6C)cn5C)cn4C)cn3C)cn2C)cn1C)C1CC2CCC1C2 (stereo partly shown) [Compound 68]	100 to 500 nM
CCN(CC)CCCC[C@H](NC(=O)[C@H](CC(C)C)NC(=O)[C@H](C)NC(=O)[C@H](Cc1ccccc1)NC(=O)c1ccc(C(C)(C)C)cc1)C(=O)N[C@@H](CO)C(=O)NCCNC(=O)CCNC(=O)c1nc(NC(=O)c2cc(NC(=O)CCNC(=O)c3nc(NC(=O)CCCNC(=O)c4cc(NC(=O)c5nc(NC(=O)CCNC(=O)c6cc(NC(=O)c7nccn7C)cn6C)cn5C)cn4C)cn3C)cn2C)cn1C [Compound 70]	< 100 nM
CCN(CC)CCCC[C@H](NC(=O)[C@H](CC(C)C)NC(=O)[C@H](C)NC(=O)[C@H](Cc1ccccc1)NC(=O)c1ccc(C(C)(C)C)cc1)C(=O)N[C@@H](CO)C(=O)NCCOCCOCCOCCOCCNC(=O)CCNC(=O)c1nc(NC(=O)c2cc(NC(=O)CCNC(=O)c3nc(NC(=O)CCCNC(=O)c4cc(NC(=O)c5nc(NC(=O)CCNC(=O)c6cc(NC(=O)c7nccn7C)cn6C)cn5C)cn4C)cn3C)cn2C)cn1C [Compound 72]	< 100 nM
CCN(CC)CCCC[C@H](NC(=O)[C@H](CC(C)C)NC(=O)[C@H](C)NC(=O)[C@H](Cc1ccccc1)NC(=O)c1ccc(C(C)(C)C)cc1)C(=O)N[C@@H](CO)C(=O)NCCOCCOCCOCCNC(=O)CCNC(=O)c1nc(NC(=O)c2cc(NC(=O)CCNC(=O)c3nc(NC(=O)CCCNC(=O)c4cc(NC(=O)c5nc(NC(=O)CCNC(=O)c6cc(NC(=O)c7nccn7C)cn6C)cn5C)cn4C)cn3C)cn2C)cn1C [Compound 73]	< 100 nM
CCN(CC)CCCC[C@H](NC(=O)[C@H](CC(C)C)NC(=O)[C@H](C)NC(=O)[C@H](Cc1ccccc1)NC(=O)c1ccc(C(C)(C)C)cc1)C(=O)N[C@@H](CO)C(=O)NCCOCCOCCN(C)C(=O)CCNC(=O)c1nc(NC(=O)c2cc(NC(=O)CCNC(=O)c3nc(NC(=O)CCCNC(=O)c4cc(NC(=O)c5nc(NC(=O)CCNC(=O)c6cc(NC(=O)c7nccn7C)cn6C)cn5C)cn4C)cn3C)cn2C)cn1C [Compound 74]	< 100 nM
CCN(CC)CCCC[C@H](NC(=O)[C@H](CC(C)C)NC(=O)[C@H](C)NC(=O)[C@H](Cc1ccccc1)NC(=O)c1ccc(C(C)(C)C)cc1)C(=O)N[C@@H](CO)C(=O)N(C)CCOCCOCCNC(=O)CCNC(=O)c1nc(NC(=O)c2cc(NC(=O)CCNC(=O)c3nc(NC(=O)CCCNC(=O)c4cc(NC(=O)c5nc(NC(=O)CCNC(=O)c6cc(NC(=O)c7nccn7C)cn6C)cn5C)cn4C)cn3C)cn2C)cn1C [Compound 75]	< 100 nM
CCN(CC)CCCC[C@H](NC(=O)[C@H](CC(C)C)NC(=O)[C@H](C)NC(=O)[C@H](Cc1ccccc1)NC(=O)c1ccc(C(C)(C)C)cc1)C(=O)N[C@@H](CO)C(=O)N(C)CCOCCOCCN(C)C(=O)CCNC(=O)c1nc(NC(=O)c2cc(NC(=O)CCNC(=O)c3nc(NC(=O)CCCNC(=O)c4cc(NC(=O)c5nc(NC(=O)CCNC(=O)c6cc(NC(=O)c7nccn7C)cn6C)cn5C)cn4C)cn3C)cn2C)cn1C [Compound 76]	< 100 nM
CC(C)C[C@H](NC(=O)[C@H](C)NC(=O)[C@H](Cc1ccccc1)NC(=O)c1ccc(C(C)(C)C)cc1)C(=O)N[C@@H](CCCCN(C)C1CC2CCC1C2)C(=O)N[C@@H](CO)C(=O)NCCOCCOCCNC(=O)CCNC(=O)c1nc(NC(=O)c2cc(NC(=O)CCNC(=O)c3nc(NC(=O)CCCNC(=O)c4cc(NC(=O)c5nc(NC(=O)CCNC(=O)c6cc(NC(=O)c7nccn7C)cn6C)cn5C)cn4C)cn3C)cn2C)cn1C (stereo partly shown) [Compound 77]	< 100 nM
CCN(CC)CCCC[C@H](NC(=O)[C@H](CC(C)C)NC(=O)[C@H](C)NC(=O)[C@H](Cc1ccccc1)NC(=O)c1ccc(C(C)(C)C)cc1)C(=O)N[C@@H](CO)C(=O)NCCOCCOCCNC(=O)c1cc(NC(=O)c2cc(NC(=O)c3nc(NC(=O)c4cc(NC(=O)[C@@H](N)CCNC(=O)c5nc(NC(=O)c6cc(NC(=O)c7cc(NC(=O)c8nccn8C)cn7C)cn6C)cn5C)cn4C)cn3C)cn2C)cn1C [Compound 78]	> 500 nM
CCN(CC)CCCC[C@H](NC(=O)[C@H](CC(C)C)NC(=O)[C@H](C)NC(=O)[C@H](Cc1ccccc1)NC(=O)c1ccc(C(C)(C)C)cc1)C(=O)N[C@@H](CO)C(=O)NCCOCCOCCNC(=O)c1cc(NC(=O)c2nc(NC(=O)c3cc(NC(=O)[C@@H](N)CCNC(=O)c4nc(NC(=O)c5cc(NC(=O)c6cc(NC(=O)c7nccn7C)cn6C)cn5C)cn4C)cn3C)cn2C)cn1C [Compound 79]	> 500 nM
CCN(CC)CCCC[C@H](NC(=O)COCCOCCNC(=O)c1ccc(C(C)(C)C)cc1)C(=O)N[C@@H](CO)C(=O)NCCOCCOCCNC(=O)CCNC(=O)c1nc(NC(=O)c2cc(NC(=O)CCNC(=O)c3nc(NC(=O)CCCNC(=O)c4cc(NC(=O)c5nc(NC(=O)CCNC(=O)c6cc(NC(=O)c7nccn7C)cn6C)cn5C)cn4C)cn3C)cn2C)cn1C [Compound 81]	< 100 nM
CCN(CC)CCCC[C@H](NC(=O)[C@H](CC(C)C)NC(=O)[C@H](C)NC(=O)[C@H](Cc1ccccc1)NC(=O)c1ccc(C(C)(C)C)cc1)C(=O)N[C@@H](CO)C(=O)NCCOCCOCCNC(=O)c1cc(NC(=O)c2cc(NC(=O)c3nc(NC(=O)c4cc(NC(=O)[C@@H](N)CCNC(=O)c5nc(NC(=O)CCNC(=O)c6cc(NC(=O)c7nccn7C)cn6C)cn5C)cn4C)cn3C)cn2C)cn1C [Compound 82]	> 500 nM
CC(C)C[C@H](NC(=O)[C@H](C)NC(=O)[C@H](Cc1ccccc1)NC(=O)c1ccc(C(C)(C)C)cc1)C(=O)N[C@@H](CCCCN(C)C1CC2CCC1C2)C(=O)N[C@@H](CO)C(=O)NCCOCCOCCNC(=O)c1cc(NC(=O)c2cc(NC(=O)c3nc(NC(=O)c4cc(NC(=O)[C@@H](N)CCNC(=O)c5nc(NC(=O)CCNC(=O)c6cc(NC(=O)c7nccn7C)cn6C)cn5C)cn4C)cn3C)cn2C)cn1C (stereo partly shown) [Compound 83]	> 500 nM
CC(C)C[C@H](NC(=O)[C@H](C)NC(=O)[C@H](Cc1ccccc1)NC(=O)c1ccc(C(C)(C)C)cc1)C(=O)N[C@@H](CCCCN(C)C1CC2CCC1C2)C(=O)N[C@@H](CO)C(=O)NCCOCCOCCOCCOCCOCCNC(=O)c1cc(NC(=O)c2cc(NC(=O)c3nc(NC(=O)c4cc(NC(=O)[C@@H](N)CCNC(=O)c5nc(NC(=O)CCNC(=O)c6cc(NC(=O)c7nccn7C)cn6C)cn5C)cn4C)cn3C)cn2C)cn1C (stereo partly shown) [Compound 84]	> 500 nM
CCN(CC)CCCC[C@H](NC(=O)[C@H](CC(C)C)NC(=O)[C@H](C)NC(=O)[C@H](Cc1ccccc1)NC(=O)c1ccc(C)cc1)C(=O)N[C@@H](CO)C(=O)NCCOCCOCCOCCOCCOCCNC(=O)CCNC(=O)c1nc(NC(=O)c2cc(NC(=O)CCNC(=O)c3nc(NC(=O)CCCNC(=O)c4cc(NC(=O)c5nc(NC(=O)CCNC(=O)c6cc(NC(=O)c7nccn7C)cn6C)cn5C)cn4C)cn3C)cn2C)cn1C [Compound 85]	< 100 nM
